Tests used:
galium [1] = assay: Test C postemergence; assay type: in vivo, Galium aparine; conditions: for Galium plant response rating / Plant response rating, Galium: scale 0 to 100 (0 no effect, 100 complete control)
Procedure, shortened: (§1)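 Injury was assessed visually against controls 13 to 15 days after application, with 0 meaning no effect and 100 full control; missing entries are shown as a dash. Preemergence sprays hit seeded loam–sand soil, postemergence sprays hit 1- to 4-leaf plants.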

morningglory = assay: Test C preemergence; assay type: in vivo, Ipomoea coccinea; conditions: for Morningglory plant response rating: preemergence; for Plant response rating, Morningglory: Preemergence, scale 0 to 100, 0 no effect, 100 complete control
Procedure, shortened: as §1

lambsquarters = assay: Test C postemergence; assay type: in vivo, Chenopodium album
Procedure, shortened: as §1

Italian ryegrass = assay: Test C preemergence; assay type: in vivo, Lolium multiflorum; conditions: for Ryegrass, Italian plant response rating: preemergence; for Plant response rating, Ryegrass, Italian: Preemergence, scale 0 to 100, 0 no effect, 100 complete control
Description: (§2) Seeds of plant species selected from blackgrass (Alopecurus myosuroides), Italian ryegrass (Lolium multiflorum), wheat, winter (winter wheat, Triticum aestivum), galium (catchweed bedstraw, Galium aparine), corn (Zea mays), large (Lg) crabgrass (Digitaria sanguinalis), giant foxtail (Setaria faberii), johnsongrass (Sorghum halepense), lambsquarters (Chenopodium album), morningglory (Ipomoea coccinea), yellow nutsedge (Cyperus esculentus), pigweed (Amaranthus retroflexus), ragweed (common ragweed, Ambrosia elatior), soybean (Glycine max), barnyardgrass (Echinochloa crus-galli), oilseed rape (Brassica napus), waterhemp (common waterhemp, Amaranthus rudis), kochia (Kochia scoparia), wild oat (Avena fatua), surinam grass (Brachiaria decumbens), foxtail, green (green foxtail, Setaria viridis), goosegrass (Eleusine indica), bromegrass, downy (downy bromegrass, Bromus tectorum), nightshade (eastern black nightshade, Solanum ptycanthum), cocklebur (common cocklebur, Xanthium strumarium), cupgrass, woolly (woolly cupgrass, Eriochloa villosa), bermudagrass (Cynodon dactylon), sunflower, (common oilseed sunflower, Helianthus annuus), Russian thistle (Salsola kali), and velvetleaf (Abutilon theophrasti) were planted into a blend of loam soil and sand and treated preemergence with test chemicals formulated in a non-phytotoxic solvent mixture which included a surfactant.
(§3) At the same time, plants selected from these crop and weed species and also barley, winter (winter barley, Hordeum vulgare), windgrass (Apera spica-venti), chickweed (common chickweed, Stellaria media), deadnettle (henbit deadnettle, Lamium amplexicaule), and canarygrass (littleseed canarygrass, Phalaris minor) were planted in pots containing Redi-Earth® planting medium (Scotts Company, 14111 Scottslawn Road, Marysville, Ohio 43041) comprising spaghnum peat moss, vermiculite, wetting agent and starter nutrients and treated with postemergence applications of test chemicals formulated in the same manner. Plants ranged in height from 2 to 18 cm (1- to 4-leaf stage) for postemergence treatments. Treated plants and controls were maintained in a greenhouse for 13 to 15 days, after which time all species were compared to controls and visually evaluated. Plant response ratings, summarized in Table C, are based on a scale of 0 to 100 where 0 is no effect and 100 is complete control. A dash (-) response means no test result.

giant foxtail = assay: Test C postemergence; assay type: in vivo, Setaria faberii; conditions: for Foxtail, Giant plant response rating / Plant response rating, Foxtail, Giant: scale 0 to 100 (0 no effect, 100 complete control)
Procedure, shortened: as §1

soybean = assay: Test C postemergence; assay type: in vivo, Glycine max
Procedure, shortened: as §1

galium [2] = assay: Test C preemergence; assay type: in vivo, Galium aparine; conditions: for Galium plant response rating: preemergence; for Plant response rating, Galium: Preemergence, scale 0 to 100, 0 no effect, 100 complete control
Description: as §2, §3

barnyardgrass [3] = assay: Test A postemergence; assay type: in vivo, Echinochloa crus-galli; conditions: 0 to 100 scale where 0 is no effect and 100 is complete control
Procedure, shortened: (§4)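 Scoring: eye-based comparison with untreated controls, 0 for no effect through 100 for complete control, at about day 10. Treatments: directed soil spray preemergence; foliar spray postemergence on 2–10 cm plants at the one- to two-leaf stage. Medium: loam soil with sand.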

blackgrass = assay: Test C postemergence; assay type: in vivo, Alopecurus myosuroides; conditions: for Blackgrass plant response rating / Plant response rating, Blackgrass: scale 0 to 100 (0 no effect, 100 complete control)
Procedure, shortened: as §1

ragweed = assay: Test C postemergence; assay type: in vivo, Ambrosia elatior
Procedure, shortened: as §1

velvetleaf = assay: Test C postemergence; assay type: in vivo, Abutilon theophrasti
Procedure, shortened: as §1

johnsongrass = assay: Test C preemergence; assay type: in vivo, Sorghum halepense; conditions: for Johnsongrass plant response rating: preemergence; for Plant response rating, Johnsongrass: Preemergence, scale 0 to 100, 0 no effect, 100 complete control
Description: as §2, §3

corn = assay: Test A preemergence; assay type: in vivo, Zea mays; conditions: for Corn plant response rating: 500 g ai/ha
Procedure, shortened: as §4

wheat = assay: Test A postemergence; assay type: in vivo, Triticum aestivum; conditions: 0 to 100 scale where 0 is no effect and 100 is complete control
Procedure, shortened: as §4

barnyardgrass [4] = assay: Test A preemergence; assay type: in vivo, Echinochloa crus-galli; conditions: for Barnyardgrass plant response rating: 500 g ai/ha
Procedure, shortened: as §4

[5] = 16 g ai/ha, postemergence, 0 is no effect, 100 is complete control
[6] = 31 g ai/ha, postemergence, visual rating, 13 to 15 days
[7] = 125 g ai/ha, postemergence, visual rating
[8] = 16 g ai/ha, scale 0 to 100 (0 no effect, 100 complete control)
[9] = 125 g ai/ha, scale 0 (no effect) to 100 (complete control)
[10] = 31 g ai/ha, postemergence, visual rating, scale 0 to 100 (0 no effect, 100 complete control), 13 to 15 days
[11] = 125 g ai/ha, postemergence, visual rating, scale 0 to 100 (0 no effect, 100 complete control)
[12] = Postemergence, 62 g ai/ha, scale 0 to 100 (0 no effect, 100 complete control)
[13] = 0 to 100 scale where 0 is no effect and 100 is complete control
[14] = 16 g ai/ha, postemergence, visual rating, 13 to 15 days
[15] = Postemergence, 31 g ai/ha, 13 to 15 days
[16] = 62 g ai/ha, scale 0 (no effect) to 100 (complete control)
[17] = Postemergence, 31 g ai/ha, scale 0 to 100 (0 no effect, 100 complete control), 13 to 15 days
[18] = 125 g ai/ha, 0 to 100 scale where 0 is no effect and 100 is complete control
[19] = 0 to 100 scale, 0 no effect, 100 complete control, approx. 10 days

Cc1cnc(Oc2cccc(C#N)c2-n2cc(C(F)(F)F)cn2)nc1 [Compound 180]
Plant response rating (0 to 100), Galium (galium [1]; [5]): 50 | Galium plant response rating (galium [1]; [6]): 55 | Plant response rating, Galium (galium [1]; [7]): 90 | Plant response rating, Galium (galium [1]; Postemergence, 62 g ai/ha): 60 | Morningglory plant response rating (morningglory; [8]): 35 | Morningglory plant response rating (morningglory; [9]): 100 | Plant response rating, Morningglory (morningglory; 62 g ai/ha): 100 | Plant response rating (0 to 100), Lambsquarters (lambsquarters; [5]): 35 | Lambsquarters plant response rating (lambsquarters; [10]): 55 | Plant response rating, Lambsquarters (lambsquarters; [11]): 85 | Plant response rating, Lambsquarters (lambsquarters; [12]): 75 | Ryegrass, Italian plant response rating (Italian ryegrass; [8]): 5 | Ryegrass, Italian plant response rating (Italian ryegrass; [9]): 80 | Plant response rating, Ryegrass, Italian (Italian ryegrass; 62 g ai/ha): 50 | Plant response rating (0 to 100), Foxtail, Giant (giant foxtail; [5]): 5 | Foxtail, Giant plant response rating (giant foxtail; [6]): 5 | Plant response rating, Foxtail, Giant (giant foxtail; [7]): 80 | Plant response rating, Foxtail, Giant (giant foxtail; Postemergence, 62 g ai/ha): 10 | Plant response rating (0 to 100), Soybean (soybean; [5]): 85 | Soybean plant response rating (soybean; [10]): 85 | Plant response rating, Soybean (soybean; [11]): 95 | Plant response rating, Soybean (soybean; [12]): 98 | Galium plant response rating (galium [2]; [8]): 80 | Galium plant response rating (galium [2]; [9]): 100 | Plant response rating, Galium (galium [2]; 62 g ai/ha): 100 | Barnyardgrass plant response rating (barnyardgrass [3]; 125 g ai/ha): 90 | Plant response rating, Barnyardgrass (barnyardgrass [3]; 500 g ai/ha): 100 | Plant response rating (0 to 100), Blackgrass (blackgrass; [5]): 0 | Blackgrass plant response rating (blackgrass; [6]): 10 | Plant response rating, Blackgrass (blackgrass; [7]): 30 | Plant response rating, Blackgrass (blackgrass; Postemergence, 62 g ai/ha): 5 | Plant response rating (0 to 100), Ragweed (ragweed; [5]): 35 | Ragweed plant response rating (ragweed; [10]): 65 | Plant response rating, Ragweed (ragweed; [11]): 70 | Plant response rating, Ragweed (ragweed; [12]): 80 | Plant response rating (0 to 100), Velvetleaf (velvetleaf; [5]): 30 | Velvetleaf plant response rating (velvetleaf; [10]): 40 | Plant response rating, Velvetleaf (velvetleaf; [11]): 85 | Plant response rating, Velvetleaf (velvetleaf; [12]): 65 | Johnsongrass plant response rating (johnsongrass; [8]): 0 | Johnsongrass plant response rating (johnsongrass; [9]): 98 | Plant response rating, Johnsongrass (johnsongrass; 62 g ai/ha): 75 | Corn plant response rating (0 to 100 scale) (corn; 125 g ai/ha): 60 | Corn plant response rating (corn; [13]): 90 | Wheat plant response rating (wheat; 125 g ai/ha): 40 | Plant response rating, Wheat (wheat; 500 g ai/ha): 80 | Barnyardgrass plant response rating (0 to 100 scale, 0 is no effect, 100 is complete control) (barnyardgrass [4]; 125 g ai/ha): 100 | Barnyardgrass plant response rating (barnyardgrass [4]; [13]): 100

N#Cc1cccc(Oc2ncc(Cl)cn2)c1-n1cc(OC(F)F)cn1 [Compound 97]
Galium plant response rating (galium [1]; [14]): 55 | Plant response rating (0 to 100), Galium (galium [1]; 125 g ai/ha, postemergence): 90 | Plant response rating, Galium (galium [1]; [15]): 75 | Plant response rating, Galium (galium [1]; Postemergence, 62 g ai/ha): 85 | Morningglory plant response rating (morningglory; [8]): 40 | Morningglory plant response rating (morningglory; [16]): 100 | Morningglory plant response rating (morningglory; [9]): 100 | Plant response rating, Morningglory (morningglory; 31 g ai/ha): 98 | Plant response rating (0 to 100), Lambsquarters (lambsquarters; 125 g ai/ha, postemergence): 98 | Plant response rating, Lambsquarters (lambsquarters; [17]): 75 | Plant response rating, Lambsquarters (lambsquarters; [12]): 80 | Ryegrass, Italian plant response rating (Italian ryegrass; [8]): 0 | Ryegrass, Italian plant response rating (Italian ryegrass; [16]): 85 | Ryegrass, Italian plant response rating (Italian ryegrass; [9]): 90 | Plant response rating, Ryegrass, Italian (Italian ryegrass; 31 g ai/ha): 60 | Foxtail, Giant plant response rating (giant foxtail; [14]): 10 | Plant response rating (0 to 100), Foxtail, Giant (giant foxtail; 125 g ai/ha, postemergence): 15 | Plant response rating, Foxtail, Giant (giant foxtail; [15]): 5 | Plant response rating, Foxtail, Giant (giant foxtail; Postemergence, 62 g ai/ha): 10 | Plant response rating (0 to 100), Soybean (soybean; 125 g ai/ha, postemergence): 95 | Plant response rating, Soybean (soybean; [17]): 60 | Plant response rating, Soybean (soybean; [12]): 90 | Galium plant response rating (galium [2]; [8]): 85 | Galium plant response rating (galium [2]; [16]): 98 | Galium plant response rating (galium [2]; [9]): 95 | Plant response rating, Galium (galium [2]; 31 g ai/ha): 90 | Plant response rating, Barnyardgrass (barnyardgrass [3]; 125 g ai/ha): 90 | Plant response rating, Barnyardgrass (barnyardgrass [3]; 500 g ai/ha): 100 | Blackgrass plant response rating (blackgrass; [14]): 10 | Plant response rating (0 to 100), Blackgrass (blackgrass; 125 g ai/ha, postemergence): 40 | Plant response rating, Blackgrass (blackgrass; [15]): 5 | Plant response rating, Blackgrass (blackgrass; Postemergence, 62 g ai/ha): 10 | Plant response rating (0 to 100), Ragweed (ragweed; 125 g ai/ha, postemergence): 70 | Plant response rating, Ragweed (ragweed; [17]): 40 | Plant response rating, Ragweed (ragweed; [12]): 60 | Plant response rating (0 to 100), Velvetleaf (velvetleaf; 125 g ai/ha, postemergence): 70 | Plant response rating, Velvetleaf (velvetleaf; [17]): 40 | Plant response rating, Velvetleaf (velvetleaf; [12]): 75 | Johnsongrass plant response rating (johnsongrass; [8]): 10 | Johnsongrass plant response rating (johnsongrass; [16]): 90 | Johnsongrass plant response rating (johnsongrass; [9]): 90 | Plant response rating, Johnsongrass (johnsongrass; 31 g ai/ha): 40 | Plant response rating, Corn (corn; [18]): 40 | Corn plant response rating (corn; [19]): 60 | Plant response rating, Wheat (wheat; 125 g ai/ha): 50 | Plant response rating, Wheat (wheat; 500 g ai/ha): 70 | Plant response rating, Barnyardgrass (barnyardgrass [4]; [18]): 80 | Barnyardgrass plant response rating (barnyardgrass [4]; [19]): 100

Source: patent publication US9695155B2, “Herbicidal substituted pyrimidinyloxy benzene compounds” (E. I. DU PONT DE NEMOURS AND COMPANY, priority 2013, dated 2017)
